Legend:
Assay type in all cases: in vivo, Wistar rats
[1] = system: STZ-induced diabetic rats; experiment: Study No 1: biochemical parameters in STZ-induced diabetic rats; settings: after 21 days
Protocol: (§1) In this experiment 48 Wistar rats weighing 130-150 g of either sex were divided randomly into 8 groups consisting of 6 rats each. The study drugs suspended in vehicle [0.1% w/v suspension of Tween 80 and carboxymethylcellulose (CMC) in water] were administered for orally for 21 days. Group 1 (normal vehicle control) consisted of normal rats that neither received streptozotocin nor any test drug; Group 2 served as streptozotocin induced diabetic control (Diabetes was induced in rats by single administration of streptozotocin (60 mg/kg/i.p) dissolved in 0.1 M-citrate buffer, pH 4.5). Forty-eight hours later, blood samples were collected and glucose levels were determined to confirm the development of diabetes. […] Group 3 was diabetic rats treated with dose equivalent to human therapeutic dose of sitagliptin (STG) (11 mg/kg); Group 4 was diabetic rats treated with dose equivalent to human therapeutic dose of Hydroxychloroquine (HCQ) (46 mg/kg), Group 5 was diabetic rats treated with combination of HCQ 46 mg/kg and STG11 mg/kg; […] For other biochemical parameters i.e. […] Other parameters like body weight, food intake and water intake were evaluated weekly till day 21st.

[2] = system: STZ induced diabetic rats; experiment: Study No 2: blood glucose in STZ induced diabetic rats (HCQ with vildagliptin and saxagliptin); settings: for Plasma glucose concentration: oral
Protocol: In this experiment 96 Wistar rats weighing 150-200 g of either sex were divided randomly into 16 groups consisting of 6 rats each. The study drugs were dissolved in water/suspended in vehicle [0.1% w/v suspension of Tween 80 and carboxymethylcellulose (CMC) in water] and administered orally for 28 days. Group 1 (normal vehicle control) consisted of normal rats that neither received Streptozotocin (STZ) nor any test drug; Group 2 served as Streptozotocin induced diabetic control [Diabetes was induced in rats by single administration of Streptozotocin (55 mg/kg/i.p.) dissolved in 0.1 M-citrate buffer, pH 4.5]. Forty-eight hours later, blood samples were collected and glucose levels were determined to confirm the development of diabetes. Only animals showing hyperglycaemia (blood glucose levels>250 mg/dl) were considered as diabetic and received vehicle orally; Group 3 was diabetic rats treated with hydroxychloroquine (HCQ) (22.5 mg/kg); Group 4 was diabetic rats treated with HCQ (45 mg/kg), Group 5 was diabetic rats treated with vildagliptin (VG) 6 mg/kg; Group 6 was diabetic rats treated with VG 12 mg/kg; Group 7 was diabetic rats treated with HCQ 22.5 mg/kg+VG 12 mg/kg and Group 8 was diabetic rats treated with combination of HCQ 45 mg/kg and VG 6 mg/kg; Group 9 was diabetic rats treated with saxagliptin (SG) 0.3 mg/kg; Group 10 was diabetic rats treated with Saxagliptin (SG) 0.6 mg/kg; Group 11 was diabetic rats treated with combination of HCQ 45 mg/kg+SG 0.3 mg/kg; Group 12 was diabetic rats treated with combination of HCQ 22.5 mg/kg+SG 0.6 mg/kg; Group 13 was diabetic rats treated with combination of HCQ 22.5 mg/kg and VG 6 mg/kg; Group 14 was diabetic rats treated with combination of HCQ 45 mg/kg and VG 12 mg/kg; Group 15 was diabetic rats treated with combination of HCQ 22.5 mg/kg+SG 0.3 mg/kg; Group 16 was diabetic rats treated with combination of HCQ 45 mg/kg+SG 0.6 mg/kg.
Blood glucose level was measured in normal and experimental rats at 0, 7th, 14th, 21st and 28th day of administration.

[3] = system: STZ-induced diabetic rats; experiment: Study No 1: body weight, food intake and water intake in STZ-induced diabetic rats; settings: for AVERAGE WATER INTAKE: oral
Protocol: as §1

[4] = subtherapeutic dose: STG 5.5, HCQ 23, STG+HCQ 5.5+23 mg/kg/day oral
[5] = therapeutic dose: STG 11, HCQ 46, STG+HCQ 11+46 mg/kg/day oral

CCN(CCO)CCCC(C)Nc1ccnc2cc(Cl)ccc12 (centres unmarked) [HCQ, Hydroxychloroquine]
Creatinine [1, 4]: 1.79 | HDL-C [1, 4]: 24.99 mg/dL | HbA1c [1, 4]: 5.30 | Insulin (serum) [1, 4]: 4.71 | SGOT [1, 4]: 57.29 | SGPT [1, 4]: 58.12 | TC [1, 4]: 166.69 mg/dL | TG [1, 4]: 130.65 mg/dL | Total Protein [1, 4]: 4.03 g/dL | Urea [1, 4]: 46.38 mg/dL | Albumin [1, 5]: 2.33 g/dL | Creatinine [1, 5]: 1.72 | HDL-C [1, 5]: 25.07 mg/dL | HbA1c [1, 5]: 4.91 | Insulin (serum) [1, 5]: 5.97 | SGOT [1, 5]: 53.77 | SGPT [1, 5]: 55.94 | TC [1, 5]: 158.57 mg/dL | TG [1, 5]: 124.68 mg/dL | Total Protein [1, 5]: 4.12 g/dL | Urea [1, 5]: 43.85 mg/dL | Plasma glucose concentration ([2]; Day 0, HCQ 22.5, VG 6, SG 0.3 mg/kg alone, HCQ+VG 22.5+6, HCQ+SG 22.5+0.3 mg/kg): 292.17 ± 26.12 mg/dL | Plasma glucose concentration ([2]; Day 0, HCQ 45, VG 12, SG 0.6 mg/kg alone, HCQ+VG 45+12, HCQ+SG 45+0.6 mg/kg): 305.67 ± 27.14 mg/dL | Plasma glucose concentration ([2]; Day 7, HCQ 22.5, VG 6, SG 0.3 mg/kg alone, HCQ+VG 22.5+6, HCQ+SG 22.5+0.3 mg/kg): 278 ± 22.59 mg/dL | Plasma glucose concentration ([2]; Day 7, HCQ 45, VG 12, SG 0.6 mg/kg alone, HCQ+VG 45+12, HCQ+SG 45+0.6 mg/kg): 265.5 ± 8.87 mg/dL | Plasma glucose concentration ([2]; Day 14, HCQ 22.5, VG 6, SG 0.3 mg/kg alone, HCQ+VG 22.5+6, HCQ+SG 22.5+0.3 mg/kg): 269.33 ± 11.45 mg/dL | Plasma glucose concentration ([2]; Day 14, HCQ 45, VG 12, SG 0.6 mg/kg alone, HCQ+VG 45+12, HCQ+SG 45+0.6 mg/kg): 266.5 ± 15.86 mg/dL | Plasma glucose concentration ([2]; Day 21, HCQ 22.5, VG 6, SG 0.3 mg/kg alone, HCQ+VG 22.5+6, HCQ+SG 22.5+0.3 mg/kg): 266.67 ± 24.68 mg/dL | Plasma glucose concentration ([2]; Day 21, HCQ 45, VG 12, SG 0.6 mg/kg alone, HCQ+VG 45+12, HCQ+SG 45+0.6 mg/kg): 265.83 ± 9.22 mg/dL | Plasma glucose concentration ([2]; Day 28, HCQ 22.5, VG 6, SG 0.3 mg/kg alone, HCQ+VG 22.5+6, HCQ+SG 22.5+0.3 mg/kg): 266.5 ± 11.33 mg/dL | Plasma glucose concentration ([2]; Day 28, HCQ 45, VG 12, SG 0.6 mg/kg alone, HCQ+VG 45+12, HCQ+SG 45+0.6 mg/kg): 244.5 ± 18.1 mg/dL | blood glucose levels as compared to diabetic control group ([2]; alone at therapeutic equivalent doses, day 28): significant improvement | AVERAGE WATER INTAKE ([3]; Day 1, Sub-The (subtherapeutic dose)): 31.67 mL | AVERAGE WATER INTAKE ([3]; Day 1, The (therapeutic dose)): 30.00 mL | Body Weight ([3]; Day 1, subtherapeutic dose: STG 5.5, HCQ 23, STG+HCQ 5.5+23 mg/kg oral): 133.33 ± 17.67 g | AVERAGE FOOD INTAKE ([3]; Day 1, subtherapeutic dose: STG 5.5, HCQ 23, combination 5.5+23 mg/kg oral): 12.17 g | Body Weight ([3]; Day 1, therapeutic dose: STG 11, HCQ 46, STG+HCQ 11+46 mg/kg oral): 140.33 ± 14.60 g | AVERAGE FOOD INTAKE ([3]; Day 1, therapeutic dose: STG 11, HCQ 46, combination 11+46 mg/kg oral): 11.50 g | AVERAGE WATER INTAKE ([3]; Day 7, Sub-The (subtherapeutic dose)): 32.17 mL | AVERAGE WATER INTAKE ([3]; Day 7, The (therapeutic dose)): 29.17 mL | Body Weight ([3]; Day 7, subtherapeutic dose: STG 5.5, HCQ 23, STG+HCQ 5.5+23 mg/kg oral): 133.67 ± 16.61 g | AVERAGE FOOD INTAKE ([3]; Day 7, subtherapeutic dose: STG 5.5, HCQ 23, combination 5.5+23 mg/kg oral): 11.50 g | Body Weight ([3]; Day 7, therapeutic dose: STG 11, HCQ 46, STG+HCQ 11+46 mg/kg oral): 141.17 ± 14.26 g | AVERAGE FOOD INTAKE ([3]; Day 7, therapeutic dose: STG 11, HCQ 46, combination 11+46 mg/kg oral): 10.33 g | AVERAGE WATER INTAKE ([3]; Day 14, Sub-The (subtherapeutic dose)): 32.17 mL | AVERAGE WATER INTAKE ([3]; Day 14, The (therapeutic dose)): 28.33 mL | Body Weight ([3]; Day 14, subtherapeutic dose: STG 5.5, HCQ 23, STG+HCQ 5.5+23 mg/kg oral): 135.17 ± 16.29 g
